From publication PMC12785564, “Targeting Melanin Production: The Safety of Tyrosinase Inhibition” (International Journal of Molecular Sciences, 2025)

What was measured:
[1] = system: reconstructed human epidermis; assay: in vitro skin corrosion / skin irritation, OECD TG 431 and 439 (human skin model, reconstructed human epidermis); format: cell-based; conditions: non-animal OECD methods
From the text: These are amongst the first and most established non-animal methods adopted by the Organisation for Economic Co-operation and Development. Clinical skin tolerability studies for the final formulation containing Thiamidol provide confirmatory evidence but also information about consumer sensory experiences.
(§1) Thiamidol used for testing was sourced from Alzchem Group AG (Trostberg, Germany) with a purity of 99% w/w. For standard toxicological endpoints of skin irritation, phototoxicity and genotoxicity, in vitro studies were performed following equivalent methods to those described in the corresponding OECD Testing Guidelines: OECD Test Guideline No. 431 (In Vitro Skin Corrosion: Human Skin Model Test); OECD Test Guideline No. 439 (In Vitro Skin Irritation: Reconstructed Human Epidermis Test Method); OECD Test Guideline No. 432 (In Vitro 3T3 NRU Phototoxicity Test); OECD Test Guideline No. 471 (Bacterial Reverse Mutation Assay); OECD Test Guideline No. 487 (in vitro Mammalian Cell Micronucleus Test); and OECD Test Guideline No. 476 (in vitro Mammalian Cell Gene Mutation Test).

[2] = 3T3 Neutral Red Uptake (NRU) cytotoxicity / phototoxicity, OECD TG 432; format: cell-based; conditions: mouse, 3T3 cells; absence of UV light; Beiersdorf internal report; read-out: NR50 (IC50 for neural uptake), cytotoxicity in 3T3 NRU
From the text: (§2) From established in vitro guideline studies, potential genotoxicity and toxic effects at a cellular level can be elucidated. This can be complemented with a weight-of-evidence of any observed indicators of cytotoxicity in multiple assays. For instance, the 3T3 Neutral Red Uptake (NRU) assay, which was initially developed for phototoxicity, can provide an indication for local toxicity in the absence of UV light.
as §1

3T3 [3] = assay: as above; format: cell-based; conditions: presence of UV light
From the text: as §2, §1

[4] = molecular target: T1, norepinephrine transport (NET) (Homo sapiens, UniProt P23975); assay: SAFETYscan NET assay; format: biochemical; conditions: 0.1 µM to 10 µM tested
T1 construct: purchased Eurofins Discovery (San Diego, CA, USA), SAFETYscan E/IC50 SELECT service
T1 sequence (P23975 whole entry): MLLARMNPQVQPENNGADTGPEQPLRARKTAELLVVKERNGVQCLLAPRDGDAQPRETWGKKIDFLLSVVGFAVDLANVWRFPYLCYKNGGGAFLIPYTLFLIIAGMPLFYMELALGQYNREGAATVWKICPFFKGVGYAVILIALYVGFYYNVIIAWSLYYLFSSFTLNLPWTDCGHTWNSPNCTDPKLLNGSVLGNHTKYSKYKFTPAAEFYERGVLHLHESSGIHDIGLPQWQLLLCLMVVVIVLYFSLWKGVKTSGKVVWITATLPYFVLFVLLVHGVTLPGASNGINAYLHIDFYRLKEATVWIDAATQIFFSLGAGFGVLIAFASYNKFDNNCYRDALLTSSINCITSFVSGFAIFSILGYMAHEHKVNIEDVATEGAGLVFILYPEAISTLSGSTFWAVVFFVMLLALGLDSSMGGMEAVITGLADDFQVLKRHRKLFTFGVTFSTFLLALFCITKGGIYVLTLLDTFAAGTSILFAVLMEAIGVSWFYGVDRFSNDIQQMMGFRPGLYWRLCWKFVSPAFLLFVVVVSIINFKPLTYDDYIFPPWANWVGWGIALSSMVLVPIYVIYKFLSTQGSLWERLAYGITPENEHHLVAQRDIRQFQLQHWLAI
Method: (§3) Pharmacological profiling was performed with the SAFETYscan^TM E/IC50 SELECT service provided by Eurofins Discovery (San Diego, CA, USA), based on the findings of in vitro assays used in pharmaceutical companies. Increasing concentrations of Thiamidol (0.1 µM to 10 µM) were tested against various ion channels, and a total of seventy-eight assays performed utilizing various output reads, including GPCR cAMP modulation, calcium mobilization, nuclear hormone receptor interactions, KINOMEscan binding, ion channel interactions, transporter interactions and enzymatic reactions. Methods are available online via Eurofins Discovery in the format of a sample report.

COX1 = molecular target: T2, COX1 (Homo sapiens, UniProt P23219); assay: SAFETYscan COX1 enzymatic inhibition; format: biochemical; conditions: 0.1 µM to 10 µM tested
T2 construct: purchased Eurofins Discovery (San Diego, CA, USA), SAFETYscan E/IC50 SELECT service
T2 sequence (P23219 24-599): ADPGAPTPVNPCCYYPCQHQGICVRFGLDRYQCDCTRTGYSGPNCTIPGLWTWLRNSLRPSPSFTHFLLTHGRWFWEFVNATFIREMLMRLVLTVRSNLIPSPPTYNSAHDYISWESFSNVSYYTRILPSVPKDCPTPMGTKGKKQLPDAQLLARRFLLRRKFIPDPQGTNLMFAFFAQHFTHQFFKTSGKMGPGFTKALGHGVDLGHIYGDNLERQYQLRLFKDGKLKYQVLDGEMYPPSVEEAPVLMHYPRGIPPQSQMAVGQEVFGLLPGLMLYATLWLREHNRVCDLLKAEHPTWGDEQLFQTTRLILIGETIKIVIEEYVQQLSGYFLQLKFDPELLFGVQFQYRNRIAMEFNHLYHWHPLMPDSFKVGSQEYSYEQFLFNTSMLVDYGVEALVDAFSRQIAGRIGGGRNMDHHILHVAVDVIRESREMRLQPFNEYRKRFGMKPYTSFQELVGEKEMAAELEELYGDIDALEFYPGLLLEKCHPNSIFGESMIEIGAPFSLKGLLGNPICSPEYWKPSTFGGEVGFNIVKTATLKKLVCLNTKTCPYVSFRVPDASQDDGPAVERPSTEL
Method: as §3

COX2 = molecular target: T3, COX2 (Homo sapiens, UniProt P35354); assay: SAFETYscan COX2 enzymatic inhibition; format: biochemical; conditions: 0.1 µM to 10 µM tested
T3 construct: purchased Eurofins Discovery (San Diego, CA, USA), SAFETYscan E/IC50 SELECT service
T3 sequence (P35354 18-604): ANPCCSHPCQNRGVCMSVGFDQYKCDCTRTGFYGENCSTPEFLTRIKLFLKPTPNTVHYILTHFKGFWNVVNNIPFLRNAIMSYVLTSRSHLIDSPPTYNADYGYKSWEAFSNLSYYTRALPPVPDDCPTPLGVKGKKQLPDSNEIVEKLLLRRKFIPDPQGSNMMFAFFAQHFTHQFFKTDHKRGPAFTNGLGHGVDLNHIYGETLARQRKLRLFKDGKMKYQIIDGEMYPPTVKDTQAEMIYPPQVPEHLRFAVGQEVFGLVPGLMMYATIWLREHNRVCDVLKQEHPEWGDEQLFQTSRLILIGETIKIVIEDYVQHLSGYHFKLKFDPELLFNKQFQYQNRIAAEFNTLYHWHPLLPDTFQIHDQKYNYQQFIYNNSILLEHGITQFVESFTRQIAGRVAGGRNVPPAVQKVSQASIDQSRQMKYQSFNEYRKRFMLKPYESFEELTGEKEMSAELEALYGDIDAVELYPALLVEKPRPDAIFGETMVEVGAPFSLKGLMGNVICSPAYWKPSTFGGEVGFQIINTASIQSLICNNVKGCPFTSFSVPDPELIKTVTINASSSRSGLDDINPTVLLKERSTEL
Method: as §3

[5] = molecular target: T4, monoamine oxidase A (MOAO) (Homo sapiens, UniProt P21397); assay: SAFETYscan monoamine oxidase A enzymatic inhibition; format: biochemical; conditions: 0.1 µM to 10 µM tested
T4 construct: purchased Eurofins Discovery (San Diego, CA, USA), SAFETYscan E/IC50 SELECT service
T4 sequence (P21397 1-527): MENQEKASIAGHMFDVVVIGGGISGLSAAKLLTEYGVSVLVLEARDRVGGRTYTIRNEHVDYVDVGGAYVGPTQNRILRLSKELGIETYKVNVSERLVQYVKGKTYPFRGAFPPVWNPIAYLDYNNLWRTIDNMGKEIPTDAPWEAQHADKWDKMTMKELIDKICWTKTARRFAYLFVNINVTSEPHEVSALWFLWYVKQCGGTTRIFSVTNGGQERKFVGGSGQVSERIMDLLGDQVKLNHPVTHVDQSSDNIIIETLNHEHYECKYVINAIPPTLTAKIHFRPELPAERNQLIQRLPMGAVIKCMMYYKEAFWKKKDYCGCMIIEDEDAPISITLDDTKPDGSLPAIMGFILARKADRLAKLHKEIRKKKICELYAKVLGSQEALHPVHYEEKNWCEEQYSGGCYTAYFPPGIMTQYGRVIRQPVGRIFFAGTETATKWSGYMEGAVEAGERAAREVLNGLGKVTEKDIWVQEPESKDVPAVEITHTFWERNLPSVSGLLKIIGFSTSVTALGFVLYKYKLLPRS
Method: as §3

dopamine transport (DAT) = molecular target: T5, dopamine transport (DAT) (Homo sapiens, UniProt Q01959); assay: SAFETYscan DAT assay; format: biochemical; conditions: 0.1 µM to 10 µM tested
T5 construct: purchased Eurofins Discovery (San Diego, CA, USA), SAFETYscan E/IC50 SELECT service
T5 sequence (Q01959 whole entry): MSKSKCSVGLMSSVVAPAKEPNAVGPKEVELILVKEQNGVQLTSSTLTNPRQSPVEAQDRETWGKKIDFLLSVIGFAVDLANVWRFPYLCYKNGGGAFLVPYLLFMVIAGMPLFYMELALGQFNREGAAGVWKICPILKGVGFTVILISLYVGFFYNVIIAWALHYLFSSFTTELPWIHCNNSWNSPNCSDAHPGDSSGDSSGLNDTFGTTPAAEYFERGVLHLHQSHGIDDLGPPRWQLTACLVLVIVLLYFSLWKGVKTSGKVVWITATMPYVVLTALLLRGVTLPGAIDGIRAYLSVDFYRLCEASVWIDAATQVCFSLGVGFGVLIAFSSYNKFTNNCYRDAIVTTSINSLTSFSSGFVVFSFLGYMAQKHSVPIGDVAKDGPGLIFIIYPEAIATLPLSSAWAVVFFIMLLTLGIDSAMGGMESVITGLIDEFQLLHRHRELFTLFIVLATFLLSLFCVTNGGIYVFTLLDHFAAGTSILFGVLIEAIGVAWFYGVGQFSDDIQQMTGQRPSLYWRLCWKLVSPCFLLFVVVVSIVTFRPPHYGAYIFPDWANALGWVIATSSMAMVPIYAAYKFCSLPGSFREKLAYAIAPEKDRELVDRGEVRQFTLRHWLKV
Method: as §3

[6] = biotransformation in fresh pig skin; format: in vitro ADME; conditions: after 24 h, irrespective of test sample concentration (0.3% and 1.0%)
Method: (§4) Metabolism in skin is evident with approx. 50% of Thiamidol degraded in a pig skin assay compared to controls after 24 h, irrespective of test sample concentration. A semiquantitative analysis of the metabolites in the porcine in vitro model is shown in Figure 2, with the primary reactions due to direct glucuronic acid conjugation (phase II metabolism) at one of the free hydroxyl groups. Further degradation products could be attributed to a combination of phase I and phase II metabolism, i.e., hydroxylation and methylation.
(§5) A biotransformation study analyzed the degradation of Thiamidol in fresh pig skin at room temperature after 24 h exposure. A solution of 0.3% and 1.0% was prepared in 2-proanol. From this, about 25 µL of test solution was placed in three vials with 2.5 g of skin, as well as controls without skin or containing skin only. All samples were mixed with 0.5 mL of water, shaken and left open. Determination of the content of the test sample was carried out in parallel. After 24 h incubation, the samples were mixed with 2 mL of acetonitrile, placed in an ultrasonic bath for 10 min (resulting in a stop to any metabolic reactions) and extracted with 50% methanol, then shaken well and placed in an ultrasonic bath and filtered. Metabolites were then identified using liquid chromatography coupled with mass spectroscopy. […]

[7] = substrate depletion in human hepatocytes; format: in vitro ADME; conditions: 5 μM, 37 °C, over 240 min
Method: as §4
as §5, with “filtered.” for “filtered. Metabolites were then identified using liquid chromatography coupled with mass spectroscopy.”
The in vitro intrinsic clearances and half-life readouts were expressed as µL/min/10^6 cells and in minutes, respectively. […]

[8] = molecular target: recombinant human tyrosinase (hTyr); set-up: method as in PMID 29427586; conditions: read-out: half-maximal inhibitory concentration (IC50) for hTyr; cited from earlier work
hyperpigmentation = conditions: cited from earlier work
3T3 [9] = system: 3T3; set-up: method as in PMID 15598357; conditions: same assay; read-out: IC50 for cytotoxicity in 3T3 Neutral Red Uptake (NRU); cited from earlier work

## CC(C)C(=O)Nc1nc(-c2ccc(O)cc2O)cs1 [Thiamidol, isobutylamido thiazolyl resorcinol]
[1]
  skin corrosion and irritation category: not categorized as corrosive or irritating to the skin
[2]
  IC50: 136 µM
3T3 [3]
  phototoxicity: distinction of NR50 in the presence of UV light: no biologically significant distinction
[4]
  IC50: 0.36 µM
COX1
  IC50: > 1 µM
COX2
  IC50: > 1 µM
[5]
  IC50: > 1 µM
Dopamine transport (DAT)
  IC50: > 1 µM
[6]
  degraded in pig skin assay compared to controls: approx. 50%
[7]
  in vitro half-life in human hepatocytes: in the minute range
[8]
  IC50: 1.1 µM
hyperpigmentation; Thiamidol formulations, diverse skin- and phototypes
  adverse effects in clinical studies: no significant adverse effects
hyperpigmentation; UV-induced solar lentigines, melasma, acne- and laser-induced PIH
  effect on hyperpigmentation in clinical studies: effectively reduces hyperpigmentation

## Oc1ccccc1O [catechol]
3T3 [9]
  IC50: 0.1 µM

## Oc1ccc(O)cc1 [hydroquinone]
3T3 [9]
  IC50: 12.9 µM

## Oc1cccc(O)c1 [resorcinol, 1,3-benzenediol]
3T3 [9]
  IC50: 17.3 µM
